In this assay the test system is Swiss mice, Sarcoma 180 sc, mean tumor weight T/C. In words: NCI In Vivo Anticancer Drug Screen. Data for tumor model Sarcoma 180 (subcutaneous) in Swiss mice. As to conditions: endpoint: mean tumor weight, higher = larger tumour. Put shortly: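 Transplantable tumors were established in mice, compound was given, then survival or tumor size was recorded. The treated value was divided by the vehicle-control value.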

Setting [1] is: dose: 50.0 mg/kg/injection, schedule: Q01DX007 (ip), vehicle: carboxymethylcellulose (CMC).

The values below come from PubChem BioAssay AID342 (DTP/NCI, 2004).

“And” between values parts separate entries of the source, which are not always exact repeats. Equal values may be shown once.

Regarding `CC1=C2C(=CC(C)(C)[C@@H]2O)C(=O)[C@](C)(O)C12CC2`, the T/C – broadly, the ratio of treated to control – is, setting by setting: (dose: 0.1 mg/kg/injection, schedule: Q01DX007 (ip), vehicle: saline) 63 % of control; (dose: 0.2 mg/kg/injection, schedule: Q01DX007 (ip), vehicle: saline) 25 % of control; (dose: 0.3 mg/kg/injection, schedule: Q01DX007 (ip), vehicle: saline) 57 % of control; (dose: 0.4 mg/kg/injection, schedule: Q01DX007 (ip), vehicle: saline) 28 % of control; (dose: 25.0 micrograms/kg/injection, schedule: Q01DX007 (ip), vehicle: saline) 70 % of control; (dose: 50.0 micrograms/kg/injection, schedule: Q01DX007 (ip), vehicle: saline) 102 % of control. Besides, the T/C is, setting by setting: (dose: 100.0 micrograms/kg/injection, schedule: Q01DX007 (ip), vehicle: saline) 84 % of control; (dose: 200.0 micrograms/kg/injection, schedule: Q01DX007 (ip), vehicle: saline) 100 % of control.

On to `CCc1nc(N)nc(N)c1-c1ccc(Cl)cc1`, for which the T/C by setting is: (dose: 6.25 mg/kg/injection, schedule: Q01DX007 (ip), vehicle: carboxymethylcellulose (CMC)) 114 % of control; (dose: 12.5 mg/kg/injection, schedule: Q01DX007 (ip), vehicle: carboxymethylcellulose (CMC)) 88 % of control; (dose: 25.0 mg/kg/injection, schedule: Q01DX007 (ip), vehicle: carboxymethylcellulose (CMC)) 114 % of control; under setting [1], 77 % of control.

As for `Cn1cc(NC(=O)c2cc(NC(=O)c3cc(NC=O)cn3C)cn2C)cc1C(=O)NCCC(=N)N`, the T/C (dose: 20.0 mg/kg/injection, schedule: Q01DX007 (sc), vehicle: water) is 80 % of control; the T/C (dose: 25.0 mg/kg/injection, schedule: Q01DX007 (sc), vehicle: water) is 77 % of control; the T/C (dose: 40.0 mg/kg/injection, schedule: Q01DX007 (sc), vehicle: water) was 92 % of control; the T/C (dose: 50.0 mg/kg/injection, schedule: Q01DX007 (sc), vehicle: water) was 64 % of control; the T/C (dose: 75.0 mg/kg/injection, schedule: Q01DX007 (sc), vehicle: water) was 71 % of control.

On to `C=CCCCCCCCCC(=O)O`, for which the T/C by setting is: (dose: 7.8 mg/kg/injection, schedule: Q01DX007 (ip), vehicle: saline) 109 % of control; (dose: 15.6 mg/kg/injection, schedule: Q01DX007 (ip), vehicle: saline) 118 % of control; (dose: 31.3 mg/kg/injection, schedule: Q01DX007 (ip), vehicle: saline) 122 % of control; (dose: 125.0 mg/kg/injection, schedule: Q01DX007 (ip), vehicle: saline) 90 % of control.

In the case of `C[C@H](N)C(=O)N[C@@H]1[C@H]2C(=C(O)C[C@@H](O)[C@@H]2O)C(=O)O[C@@H]1C`, the T/C runs as follows: (dose: 250.0 mg/kg/injection, schedule: Q01DX007 (ip), vehicle: carboxymethylcellulose (CMC)) 66 % of control; (dose: 500.0 mg/kg/injection, schedule: Q01DX007 (ip), vehicle: carboxymethylcellulose (CMC)) 42 % of control; (dose: 1000.0 mg/kg/injection, schedule: Q01DX007 (ip), vehicle: carboxymethylcellulose (CMC)) 12 % of control.

As to `CCC(=O)O[C@H]1CC[C@H]2[C@@H]3CCC4=CC(=O)CC[C@]4(C)[C@H]3[C@@H](O)C[C@]12C`, the T/C (dose: 12.5 mg/kg/injection, schedule: Q#A X014 (sc), vehicle: steriod suspending solution) is 96 % of control; the T/C (dose: 125.0 mg/kg/injection, schedule: Q#A X014 (sc), vehicle: steriod suspending solution) was 88 % of control; the T/C (dose: 250.0 mg/kg/injection, schedule: Q#A X014 (sc), vehicle: steriod suspending solution) was 94 % of control.

With `COC(=O)C1=COC(C)C2CN3CCc4c([nH]c5cc(OC)ccc45)C3CC12` (centres undefined), the T/C (dose: 50.0 mg/kg/injection, schedule: Q01DX007 (ip), vehicle: other) was 91 % of control; the T/C (dose: 100.0 mg/kg/injection, schedule: Q01DX007 (ip), vehicle: other) was 89 % of control; the T/C (dose: 200.0 mg/kg/injection, schedule: Q01DX007 (ip), vehicle: other) is 75 % of control.

For the compound `CC1CCC2(NC1)OC1CC3C4CC=C5CC(OC6OC(CO)C(OC7OC(C)C(O)C(O)C7O)C(O)C6OC6OC(C)C(O)C(O)C6O)CCC5(C)C4CCC3(C)C1C2C` (centres undefined), the T/C by setting is: (dose: 150.0 mg/kg/injection, schedule: Q01DX007 (sc), vehicle: steriod suspending solution) 115 % of control; (dose: 300.0 mg/kg/injection, schedule: Q01DX007 (sc), vehicle: steriod suspending solution) 100 % of control; (dose: 500.0 mg/kg/injection, schedule: Q01DX007 (sc), vehicle: steriod suspending solution) 79 % of control.

On to `CC(C)Sc1nc(N)nc2c1ncn2C1OC(CO)C(O)C1O` (centres undefined), for which the T/C is, setting by setting: (dose: 1.35 mg/kg/injection, schedule: Q#A X014 (ip), vehicle: methylcellulose (MC)) 69 % of control; (dose: 2.05 mg/kg/injection, schedule: Q#A X014 (ip), vehicle: methylcellulose (MC)) 95 % of control; (dose: 3.12 mg/kg/injection, schedule: Q#A X014 (ip), vehicle: methylcellulose (MC)) 53 % of control; (dose: 4.65 mg/kg/injection, schedule: Q#A X014 (ip), vehicle: methylcellulose (MC)) 86 % of control.

On to `OCC1OC(n2cnc3c(Cl)ncnc32)C(O)C1O` (centres undefined), for which the T/C is 102 % of control (dose: 5.9 mg/kg/injection, schedule: Q01DX007 (ip), vehicle: carboxymethylcellulose (CMC)); 104 % of control (dose: 11.75 mg/kg/injection, schedule: Q01DX007 (ip), vehicle: carboxymethylcellulose (CMC)); 105 % of control (dose: 23.5 mg/kg/injection, schedule: Q01DX007 (ip), vehicle: carboxymethylcellulose (CMC)); 113 % of control (dose: 47.0 mg/kg/injection, schedule: Q01DX007 (ip), vehicle: carboxymethylcellulose (CMC)); 75 % of control under setting [1]; 38 % of control (dose: 94.0 mg/kg/injection, schedule: Q01DX007 (ip), vehicle: carboxymethylcellulose (CMC)). Moreover, the T/C is, setting by setting: (dose: 100.0 mg/kg/injection, schedule: Q01DX007 (ip), vehicle: carboxymethylcellulose (CMC)) 110 % of control; (dose: 187.5 mg/kg/injection, schedule: Q01DX007 (ip), vehicle: carboxymethylcellulose (CMC)) 29 % of control; (dose: 200.0 mg/kg/injection, schedule: Q01DX007 (ip), vehicle: carboxymethylcellulose (CMC)) 102 % of control; (dose: 375.0 mg/kg/injection, schedule: Q01DX007 (ip), vehicle: carboxymethylcellulose (CMC)) 36 % of control; (dose: 400.0 mg/kg/injection, schedule: Q01DX007 (ip), vehicle: carboxymethylcellulose (CMC)) 70 % of control; (dose: 750.0 mg/kg/injection, schedule: Q01DX007 (ip), vehicle: carboxymethylcellulose (CMC)) 36 % of control. For the same compound, for the setting “dose: 800.0 mg/kg/injection, schedule: Q01DX007 (ip), vehicle: carboxymethylcellulose (CMC)”, the T/C was 122 % of control.

With `N=[N+]=CC(=O)OCC(N)C(=O)O` (centres undefined), the T/C was 61 % of control (dose: 0.25 mg/kg/injection, schedule: Q#A X014 (ip), vehicle: carboxymethylcellulose (CMC)); 35 % of control (dose: 0.5 mg/kg/injection, schedule: Q#A X014 (ip), vehicle: carboxymethylcellulose (CMC)); 65 % of control (dose: 0.57 mg/kg/injection, schedule: Q#A X014 (ip), vehicle: carboxymethylcellulose (CMC)); 33 % of control (dose: 0.92 mg/kg/injection, schedule: Q01DX007 (ip), vehicle: carboxymethylcellulose (CMC)); 25 % of control (dose: 1.0 mg/kg/injection, schedule: Q#A X014 (ip), vehicle: carboxymethylcellulose (CMC)); 39 % of control (dose: 1.15 mg/kg/injection, schedule: Q01DX007 (ip), vehicle: carboxymethylcellulose (CMC)). For the same compound, the T/C by setting is: (dose: 1.15 mg/kg/injection, schedule: Q#A X014 (ip), vehicle: carboxymethylcellulose (CMC)) 7 % of control; (dose: 1.53 mg/kg/injection, schedule: Q01DX007 (ip), vehicle: carboxymethylcellulose (CMC)) 30 % of control; (dose: 2.1 mg/kg/injection, schedule: Q01DX007 (ip), vehicle: carboxymethylcellulose (CMC)) 11 % of control and 12 % of control; (dose: 2.3 mg/kg/injection, schedule: Q01DX007 (ip), vehicle: carboxymethylcellulose (CMC)) 14 % of control; (dose: 2.3 mg/kg/injection, schedule: Q#A X014 (ip), vehicle: carboxymethylcellulose (CMC)) 3 % of control; (dose: 4.2 mg/kg/injection, schedule: Q01DX007 (ip), vehicle: carboxymethylcellulose (CMC)) 3 % of control and 7 % of control. Also, the T/C runs as follows: (dose: 4.6 mg/kg/injection, schedule: Q#A X014 (ip), vehicle: carboxymethylcellulose (CMC)) 4 % of control; (dose: 6.3 mg/kg/injection, schedule: Q01DX007 (ip), vehicle: carboxymethylcellulose (CMC)) 2 % of control and 5 % of control.
